Test: recombinant barcode read abundance after kanamycin selection (control-corrected) (log10(CPM+1)); higher = more efficient recombination; sequences stand for … in AGTGCAGAGAAAATCGGCCAGTTTTCTCTGCCTGCAGTCCGCATGCCGT…AGATTTATGCAGCGGACTGCCTTTCTCCCAAAGTGATAAACCGGACAGTATCATGGACCGGTTTTCCCGGTAATCCGTATTTGCAAGGTTGGTTTCACT; site = the 11-nt target
How it was run: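 Recombination efficiency in this pooled E. coli screen uses counts per million of barcodes at recombinant junctions, averaged and corrected against the control. The reported form is log10(CPM+1). Two replicates were plated on chloramphenicol/ampicillin LB agar as control and two on chloramphenicol/ampicillin/kanamycin with 0.1 mM IPTG.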
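Note: IS621 recombinase and bridge RNA in Escherichia coli cells.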

Sequence | recombinant barcode read abundance (log10)
GCACACCCTTGGGTTCTAACCTGTTGCCT (site CCACATCCTAG) | 0.0345
GCACACCCTTGGGTTCTAACCTGTTGCCT (site GCACACCCTAG) | 1.1
GCACATCCTTGGGTTCTAACCTGTTGCGT (site GCAAATCCTAG) | 0.154
GCACATCCTTGGGTTCTAACCTGTTGCGT (site GCACATCCTAC) | 2.53
GCACCTGCTTGGGTTCTAACCTGTTGCCT (site GCACCTGCTAG) | 1.61
GCACCTGCTTGGGTTCTAACCTGTTGCCT (site TATTTGCCTCA) | 0.238
GCACGCTCTTGGGTTCTAACCTGTTGCCT (site GCACACTCTAG) | 0.607
GCACGCTCTTGGGTTCTAACCTGTTGCCT (site GCACCCTCTAG) | 0.192
GCACGCTCTTGGGTTCTAACCTGTTGCCT (site GCACGCTCTAG) | 1.55
GCACGCTCTTGGGTTCTAACCTGTTGCCT (site GCACTCTCTAG) | 0.12
GCACTCTCTTGGGTTCTAACCTGTTGCCT (site GCACACTCTAG) | 0.0251
GCACTCTCTTGGGTTCTAACCTGTTGCCT (site GCACCCTCTAG) | 0.568
GCACTCTCTTGGGTTCTAACCTGTTGCCT (site GCACGCTCTAG) | 0.101
GCACTCTCTTGGGTTCTAACCTGTTGCCT (site GCACTCTCTAG) | 1.58
GCATCCACTTGGGTTCTAACCTGTTGCCT (site GCATCCACTAG) | 0.938
GCATCCACTTGGGTTCTAACCTGTTGCCT (site GCGTCCACTAG) | 0.0333
GCATCTACTTGGGTTCTAACCTGTTGCCT (site GAATCTACTAG) | 0.101
GCATCTACTTGGGTTCTAACCTGTTGCCT (site GCATCTACTAG) | 0.136
GCATCTACTTGGGTTCTAACCTGTTGCCT (site GGATCTACTAG) | 0.059
GCATCTACTTGGGTTCTAACCTGTTGCCT (site GTATCTACTAG) | 0.2
GCATCTCCTTGGGTTCTAACCTGTTGCCT (site ACATCTCCTAG) | 0.4
GCATCTCCTTGGGTTCTAACCTGTTGCCT (site CCATCTCCTAG) | 0.103

Sequence | recombinant barcode read abundance (log10)
GCATCTCCTTGGGTTCTAACCTGTTGCCT (site GCATCTCCTAG) | 1.06
GCATCTCCTTGGGTTCTAACCTGTTGCCT (site TCATCTCCTAG) | 0.0491
GCATGAGCTTGGGTTCTAACCTGTTGCCT (site GCATGAGCTAG) | 2.09
GCATGAGCTTGGGTTCTAACCTGTTGCCT (site GCCTGAGCTAG) | 0.122
GCATGAGCTTGGGTTCTAACCTGTTGCCT (site GCGTGAGCTAG) | 0.136
GCATGAGCTTGGGTTCTAACCTGTTGCCT (site GCTTGAGCTAG) | 0.914
GCCAACCCTTGGGTTCTAACCTGTTGCAT (site GCCAACCCTAA) | 0.0781
GCCAACCCTTGGGTTCTAACCTGTTGCAT (site GCCAACCCTAC) | 0.0603
GCCAACCCTTGGGTTCTAACCTGTTGCAT (site GCCAACCCTAG) | 0.348
GCCAACCCTTGGGTTCTAACCTGTTGCAT (site GCCAACCCTAT) | 0
GCCAACCCTTGGGTTCTAACCTGTTGCTA (site GCCAACCCTTA) | 0.116
GCCAACCCTTGGGTTCTAACCTGTTGCTA (site TCCAACCCTTG) | 0.129
GCCACACCTTGGGTTCTAACCTGTTGCCT (site GCCAAACCTAG) | 0.188
GCCACACCTTGGGTTCTAACCTGTTGCCT (site GCCACACCTAG) | 0.222
GCCACACCTTGGGTTCTAACCTGTTGCCT (site GCCAGACCTAG) | 0.177
GCCACACCTTGGGTTCTAACCTGTTGCCT (site GCCATACCTAG) | 0.153
GCCAGGGCTTGGGTTCTAACCTGTTGCCG (site GCCAGGGCTCG) | 0.461
GCCAGGGCTTGGGTTCTAACCTGTTGCCG (site GCCCGGGCTCG) | 0.264
GCCAGGGCTTGGGTTCTAACCTGTTGCCG (site GCCGGGGCTCG) | 0.111
GCCAGGGCTTGGGTTCTAACCTGTTGCCG (site GCCTGGGCTCG) | 0.0195
GCCATACCTTGGGTTCTAACCTGTTGCCT (site GCCAAACCTAG) | 0.0715
GCCATACCTTGGGTTCTAACCTGTTGCCT (site GCCACACCTAG) | 0.0723

Sequence | recombinant barcode read abundance (log10)
GCCATACCTTGGGTTCTAACCTGTTGCCT (site GCCAGACCTAG) | 0.194
GCCATACCTTGGGTTCTAACCTGTTGCCT (site GCCATACCTAG) | 0.199
GCCATGACTTGGGTTCTAACCTGTTGCCT (site GCCATAACTAG) | 0.067
GCCATGACTTGGGTTCTAACCTGTTGCCT (site GCCATCACTAG) | 0.0872
GCCATGACTTGGGTTCTAACCTGTTGCCT (site GCCATGACTAG) | 0.132
GCCATGACTTGGGTTCTAACCTGTTGCCT (site GCCATTACTAG) | 0
GCCCAATCTTGGGTTCTAACCTGTTGCCT (site GCCCAATCTAG) | 1.05
GCCCAATCTTGGGTTCTAACCTGTTGCCT (site GCCCCATCTAG) | 0.115
GCCCAATCTTGGGTTCTAACCTGTTGCCT (site GCCCGATCTAG) | 0.176
GCCCAATCTTGGGTTCTAACCTGTTGCCT (site GCCCTATCTAG) | 0.195
GCCCAGCCTTGGGTTCTAACCTGTTGCGG (site ACCAAGCCTCC) | 0.0607
GCCCAGCCTTGGGTTCTAACCTGTTGCGG (site GCCCAGCCTCC) | 2.71
GCCCTCCCTTGGGTTCTAACCTGTTGCCT (site GCACTCCCTAG) | 0.558
GCCCTCCCTTGGGTTCTAACCTGTTGCCT (site GCCCTCCCTAG) | 1.77
GCCCTCCCTTGGGTTCTAACCTGTTGCCT (site GCGCTCCCTAG) | 0.0524
GCCCTCCCTTGGGTTCTAACCTGTTGCCT (site GCTCTCCCTAG) | 0.597
GCCGGCTCTTGGGTTCTAACCTGTTGCCT (site GACGGCTCTAG) | 0.182
GCCGGCTCTTGGGTTCTAACCTGTTGCCT (site GCCGGCTCTAG) | 1.35
GCCTAGTCTTGGGTTCTAACCTGTTGCCA (site GCCTAGTCTTG) | 1.13
GCCTAGTCTTGGGTTCTAACCTGTTGCCA (site TCCTAGTCTTG) | 0.0302
GCCTCGGCTTGGGTTCTAACCTGTTGCCT (site GCATCGGCTAG) | 0.0156
GCCTCGGCTTGGGTTCTAACCTGTTGCCT (site GCCTCGGCTAG) | 0.134

Sequence | recombinant barcode read abundance (log10)
GCCTCGGCTTGGGTTCTAACCTGTTGCCT (site GCGTCGGCTAG) | 0.0495
GCCTCGGCTTGGGTTCTAACCTGTTGCCT (site GCTTCGGCTAG) | 0.0313
GCCTCGTCTTGGGTTCTAACCTGTTGCCT (site GCATCGTCTAG) | 0.0638
GCCTCGTCTTGGGTTCTAACCTGTTGCCT (site GCCTCGTCTAG) | 0.68
GCCTCGTCTTGGGTTCTAACCTGTTGCCT (site GCGTCGTCTAG) | 0.206
GCCTCGTCTTGGGTTCTAACCTGTTGCCT (site GCTTCGTCTAG) | 0.0462
GCCTGAGCTTGGGTTCTAACCTGTTGCCT (site GCATGAGCTAG) | 0
GCCTGAGCTTGGGTTCTAACCTGTTGCCT (site GCCTGAGCTAG) | 0.303
GCCTGAGCTTGGGTTCTAACCTGTTGCCT (site GCGTGAGCTAG) | 0.272
GCCTGAGCTTGGGTTCTAACCTGTTGCCT (site GCTTGAGCTAG) | 0
GCCTGGGCTTGGGTTCTAACCTGTTGCCG (site GCCAGGGCTCG) | 0.0298
GCCTGGGCTTGGGTTCTAACCTGTTGCCG (site GCCCGGGCTCG) | 0.516
GCCTGGGCTTGGGTTCTAACCTGTTGCCG (site GCCGGGGCTCG) | 0.114
GCCTGGGCTTGGGTTCTAACCTGTTGCCG (site GCCTGGGCTCG) | 0.72
GCCTGGGCTTGGGTTCTAACCTGTTGCCT (site GCCTGGGCTAG) | 0.317
GCCTGGGCTTGGGTTCTAACCTGTTGCCT (site GCCTTGGCTAG) | 0.438
GCCTTGGCTTGGGTTCTAACCTGTTGCCT (site GCCTGGGCTAG) | 0.195
GCCTTGGCTTGGGTTCTAACCTGTTGCCT (site GCCTTGGCTAG) | 0.572
GCGAACCCTTGGGTTCTAACCTGTTGCTT (site GCGAACCCTAA) | 1.47
GCGAACCCTTGGGTTCTAACCTGTTGCTT (site TCGAACCCTAA) | 0.0595
